According to US20230293535A1, “ERBB/BTK INHIBITORS” (Dizal (Jiangsu) Pharmaceutical Co., Ltd., priority 2018, published 2023):

Key:
Assay type in all cases: cell-based
[1] = test system: Her2 exon 20 insertion YVMA transduced NIH-3T3 cell line; experiment: Cell proliferation, Her2 YVMAins NIH-3T3 (CellTiter-Glo, 72 h); settings: Mus musculus, NIH3T3, 72 h, Her2 YVMAins cells, 72 h proliferation; read-out: Her2 Exon 20 YVMA insertion GI50;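 further: viable cells quantified by ATP luminescence, growth over a day-zero baseline plate expressed as percent of DMSO control growth, compound dilution series in 10% FBS medium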
[2] = biological target: T1, human EGFR exon 20 V769_D770insASV (Homo sapiens, UniProt P00533, INS769ASV); experiment: EGFR Exon20 ASV insertion cellular phosphorylation inhibition (MSD pEGFR Y1068/total EGFR); settings: Ba/F3 EGFR ASV ins cells, 4 h compound, p-EGFR(Y1068)/total EGFR;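 further: electrochemiluminescent readout on an MSD SECTOR Imager, IL3-independent transduced cells in medium with 1% FBS, compound concentration series at 37 °C and 5% CO2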
T1 construct: expressed in transfected cells; host or cells: Ba/F3 (DSMZ ACC-300), lentiviral transduction, puromycin selection, IL3 depletion

Ba/F3 EGFR ASV ins cells = experiment: Cell proliferation, Ba/F3 EGFR ASV ins (CellTiter-Glo, 72 h); settings: Ba/F3 EGFR, 72 h, Ba/F3 EGFR ASV ins, 72 h proliferation; read-out: EGFR Exon20 ASV insertion GI50;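 further: IL3-independent Ba/F3 cells transduced with EGFR V769_D770insASV, cellular ATP luminescence after compound exposure, growth relative to DMSO control with the day-0 baseline reading subtracted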
TMD-8 cells = experiment: BTK (wt) cell proliferation, TMD-8 (CellTiter-Glo, 72 h); settings: Homo sapiens, TMD8, 72 h, TMD-8 cells, 72 h, CellTiter-Glo; read-out: BTK WT TMD-8 GI50;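 further: viable cells quantified by ATP-based luminescence, proliferation expressed as percent of DMSO control after subtracting a time-zero baseline plate read at dosing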
Ba/F3 EGFR NPH ins cells = experiment: Cell proliferation, Ba/F3 EGFR NPH ins (CellTiter-Glo, 72 h); settings: Ba/F3 EGFR, 72 h, Ba/F3 EGFR NPH ins, 72 h proliferation; read-out: EGFR Exon20 NPH insertion GI50;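 further: IL3-independent cells carrying constitutively phosphorylated EGFR, compound dilution series, viable cells quantified by ATP luminescence, growth relative to DMSO wells after subtracting pre-dosing (day 0) baseline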
[3] = biological target: T2, human EGFR exon 20 H773_V774insNPH (Homo sapiens, UniProt P00533, INS773NPH); experiment: EGFR Exon20 NPH insertion cellular phosphorylation inhibition (MSD pEGFR Y1068/total EGFR); settings: Ba/F3 EGFR NPH ins cells, 4 h compound, p-EGFR(Y1068)/total EGFR;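 further: IL3-independent Ba/F3 cells with constitutively phosphorylated EGFR, compound exposure at 37 °C under 5% CO2, electrochemiluminescent MSD measurement of the p-EGFR to total EGFR ratio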
T2 construct: host or cells: Ba/F3

DB cells = experiment: BTK (wt) cell proliferation, DB (CellTiter-Glo, 72 h); settings: Homo sapiens, DB, DB cells, CellTiter-Glo, read-out: Non-BCR activated DB GI50;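 further: DB cells in 384-well plates given a dilution series of compound, viable cells read by ATP luminescence, growth expressed versus DMSO control after subtracting a time-zero plate reading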
[4] = biological target: T3, human Her2 exon 20 insertion mutation YVMA (Homo sapiens, UniProt P04626, INS775YVMA); experiment: Her2 Exon 20 YVMA insertion cellular phosphorylation inhibition (MSD p-Her2 Y1248/total Her2); settings: Her2 YVMAins cells, 4 h compound;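 further: lentivirally transduced NIH-3T3 cells in 1% FBS medium, electrochemiluminescent MSD read-out, graded compound concentrations at 37 °C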
T3 construct: expressed in transfected cells; host or cells: NIH-3T3, lentiviral transduction, puromycin selection

WT EGFR cell line A-431 = experiment: Cell proliferation, WT EGFR A431 (CellTiter-Glo, 72 h); settings: Homo sapiens, A-431, 72 h, A431, 72 h proliferation; read-out: EGFR WT A431 GI50;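 further: proliferation from a luminescent ATP viability signal, expressed as 100 × (treated minus time-zero plate) over (DMSO control minus time-zero plate), cells grown with 10% FBS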
[5] = test system: NCI-H1975 EGFR L858R/T790M cells; experiment: Cell proliferation, NCI-H1975 EGFR L858R/T790M (CellTiter-Glo, 72 h); settings: Homo sapiens, NCI-H1975, 72 h, NCI-H1975, 72 h proliferation; read-out: EGFR L858R and T790M mutation GI50;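 further: viable cells quantified by luciferase-based ATP luminescence, proliferation expressed relative to DMSO-treated wells (100%) after subtracting a parallel plate read at the time of dosing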
EGFR L858R&T790M = biological target: T4, EGFR L858R&T790M (Homo sapiens, UniProt P00533, L858R/T790M); experiment: EGFR L858R and T790M cellular phosphorylation inhibition in NCI-H1975 (MSD); settings: NCI-H1975 cells, 4 h compound, p-EGFR(Y1068)/total EGFR; read-out: EGFR L858R and T790M mutation IC50;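 further: phosphorylated and total EGFR detected by electrochemiluminescence, cells exposed to compound in medium containing 1% FBS at 37 °C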
T4 construct: host or cells: NCI-H1975

Ri-1 cells = experiment: BTK (wt) cell proliferation, Ri-1 (CellTiter-Glo, 72 h); settings: Ri-1, 72 h, Ri-1 cells, 72 h, CellTiter-Glo; read-out: BTK WT Ri-1 GI50;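 further: viable cells quantified as cellular ATP luminescence, proliferation normalized to a time-zero plate and the DMSO control, compounds tested across a dilution series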
WT EGFR = biological target: T5, WT EGFR (Homo sapiens, UniProt P00533); experiment: WT EGFR cellular phosphorylation inhibition in A-431 (hEGF stimulated, MSD); settings: A431 cells, 4 h compound, then 100 ng/ml hEGF 10 min;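 further: electrochemiluminescence read-out of EGFR Tyr1068 phosphorylation expressed as ratio to total EGFR, cells kept in medium with 1% FBS, compounds tested as a concentration series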
T5 construct: host or cells: A-431

OCI-LY-10 cells = experiment: BTK (wt) cell proliferation, OCI-LY-10 (CellTiter-Glo, 72 h); settings: Homo sapiens, OCI-Ly10, 72 h, OCI-LY-10 cells, 72 h, CellTiter-Glo; read-out: BTK WT OCI-LY-10 GI50;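 further: viable cells quantified via cellular ATP luminescence, proliferation given as percent of DMSO control after subtracting a duplicate plate read at time of dosing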

T2 sequence (P00533 with tags, fused parts or gaps INS773NPH): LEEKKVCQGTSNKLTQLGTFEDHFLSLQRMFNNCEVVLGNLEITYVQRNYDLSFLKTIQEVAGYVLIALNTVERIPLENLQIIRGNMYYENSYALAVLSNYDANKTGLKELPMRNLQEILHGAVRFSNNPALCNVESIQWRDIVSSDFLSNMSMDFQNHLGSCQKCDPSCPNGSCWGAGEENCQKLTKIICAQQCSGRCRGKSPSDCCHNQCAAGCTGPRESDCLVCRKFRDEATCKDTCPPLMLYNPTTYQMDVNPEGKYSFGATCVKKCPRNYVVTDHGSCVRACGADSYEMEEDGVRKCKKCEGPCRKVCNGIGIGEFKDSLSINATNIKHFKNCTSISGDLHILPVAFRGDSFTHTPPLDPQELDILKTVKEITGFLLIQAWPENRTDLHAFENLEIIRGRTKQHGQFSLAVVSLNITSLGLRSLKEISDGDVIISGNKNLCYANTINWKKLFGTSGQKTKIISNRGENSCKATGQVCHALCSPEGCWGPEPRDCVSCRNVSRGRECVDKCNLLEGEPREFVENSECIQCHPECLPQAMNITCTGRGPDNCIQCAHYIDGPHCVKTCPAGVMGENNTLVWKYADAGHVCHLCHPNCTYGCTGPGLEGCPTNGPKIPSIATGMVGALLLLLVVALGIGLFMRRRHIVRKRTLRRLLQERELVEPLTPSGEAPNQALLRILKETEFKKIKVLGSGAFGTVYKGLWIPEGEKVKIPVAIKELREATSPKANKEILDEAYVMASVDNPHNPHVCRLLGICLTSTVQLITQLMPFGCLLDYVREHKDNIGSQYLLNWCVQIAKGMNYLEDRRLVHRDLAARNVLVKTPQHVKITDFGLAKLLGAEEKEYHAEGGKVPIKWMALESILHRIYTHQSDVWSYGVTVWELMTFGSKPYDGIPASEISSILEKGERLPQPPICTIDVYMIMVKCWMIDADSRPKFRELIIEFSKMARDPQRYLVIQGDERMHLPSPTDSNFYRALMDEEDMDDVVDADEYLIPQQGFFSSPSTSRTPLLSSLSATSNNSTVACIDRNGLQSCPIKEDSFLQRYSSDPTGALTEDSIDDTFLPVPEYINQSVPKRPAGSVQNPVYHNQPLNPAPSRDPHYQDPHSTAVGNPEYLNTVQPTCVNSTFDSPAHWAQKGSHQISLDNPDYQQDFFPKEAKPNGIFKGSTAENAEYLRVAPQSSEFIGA
T4 sequence (P00533 25-1210 T790M/L858R): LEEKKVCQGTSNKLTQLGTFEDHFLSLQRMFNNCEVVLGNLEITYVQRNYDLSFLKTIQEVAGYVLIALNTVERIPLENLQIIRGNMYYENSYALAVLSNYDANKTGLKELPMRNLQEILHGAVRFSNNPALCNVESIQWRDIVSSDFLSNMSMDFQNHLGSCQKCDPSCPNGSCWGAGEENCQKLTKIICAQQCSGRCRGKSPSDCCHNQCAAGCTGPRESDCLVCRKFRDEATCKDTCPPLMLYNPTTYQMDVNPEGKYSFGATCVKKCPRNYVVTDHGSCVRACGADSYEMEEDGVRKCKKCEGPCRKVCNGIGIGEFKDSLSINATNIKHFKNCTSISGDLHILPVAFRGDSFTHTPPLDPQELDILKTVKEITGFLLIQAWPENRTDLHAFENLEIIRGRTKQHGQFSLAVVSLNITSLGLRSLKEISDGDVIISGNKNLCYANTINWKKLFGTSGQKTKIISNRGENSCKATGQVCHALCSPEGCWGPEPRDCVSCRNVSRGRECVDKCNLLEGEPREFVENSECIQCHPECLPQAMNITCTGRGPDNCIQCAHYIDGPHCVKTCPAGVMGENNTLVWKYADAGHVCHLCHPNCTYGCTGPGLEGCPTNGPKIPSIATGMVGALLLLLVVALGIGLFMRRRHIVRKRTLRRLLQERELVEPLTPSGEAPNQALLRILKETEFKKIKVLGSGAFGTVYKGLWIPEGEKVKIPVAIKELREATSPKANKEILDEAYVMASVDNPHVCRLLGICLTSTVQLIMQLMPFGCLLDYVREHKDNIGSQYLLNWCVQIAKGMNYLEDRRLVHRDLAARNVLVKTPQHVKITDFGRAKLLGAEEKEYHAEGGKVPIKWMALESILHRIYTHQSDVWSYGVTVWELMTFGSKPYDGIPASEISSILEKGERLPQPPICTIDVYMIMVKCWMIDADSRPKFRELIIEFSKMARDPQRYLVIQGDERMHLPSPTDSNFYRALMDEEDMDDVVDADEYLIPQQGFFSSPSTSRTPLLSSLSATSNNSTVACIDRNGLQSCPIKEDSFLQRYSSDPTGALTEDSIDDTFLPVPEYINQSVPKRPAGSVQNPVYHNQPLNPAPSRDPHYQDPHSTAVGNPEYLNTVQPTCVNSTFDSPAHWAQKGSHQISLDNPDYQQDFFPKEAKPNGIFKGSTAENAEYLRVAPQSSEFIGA
T3 sequence (P04626 with tags, fused parts or gaps INS775YVMA): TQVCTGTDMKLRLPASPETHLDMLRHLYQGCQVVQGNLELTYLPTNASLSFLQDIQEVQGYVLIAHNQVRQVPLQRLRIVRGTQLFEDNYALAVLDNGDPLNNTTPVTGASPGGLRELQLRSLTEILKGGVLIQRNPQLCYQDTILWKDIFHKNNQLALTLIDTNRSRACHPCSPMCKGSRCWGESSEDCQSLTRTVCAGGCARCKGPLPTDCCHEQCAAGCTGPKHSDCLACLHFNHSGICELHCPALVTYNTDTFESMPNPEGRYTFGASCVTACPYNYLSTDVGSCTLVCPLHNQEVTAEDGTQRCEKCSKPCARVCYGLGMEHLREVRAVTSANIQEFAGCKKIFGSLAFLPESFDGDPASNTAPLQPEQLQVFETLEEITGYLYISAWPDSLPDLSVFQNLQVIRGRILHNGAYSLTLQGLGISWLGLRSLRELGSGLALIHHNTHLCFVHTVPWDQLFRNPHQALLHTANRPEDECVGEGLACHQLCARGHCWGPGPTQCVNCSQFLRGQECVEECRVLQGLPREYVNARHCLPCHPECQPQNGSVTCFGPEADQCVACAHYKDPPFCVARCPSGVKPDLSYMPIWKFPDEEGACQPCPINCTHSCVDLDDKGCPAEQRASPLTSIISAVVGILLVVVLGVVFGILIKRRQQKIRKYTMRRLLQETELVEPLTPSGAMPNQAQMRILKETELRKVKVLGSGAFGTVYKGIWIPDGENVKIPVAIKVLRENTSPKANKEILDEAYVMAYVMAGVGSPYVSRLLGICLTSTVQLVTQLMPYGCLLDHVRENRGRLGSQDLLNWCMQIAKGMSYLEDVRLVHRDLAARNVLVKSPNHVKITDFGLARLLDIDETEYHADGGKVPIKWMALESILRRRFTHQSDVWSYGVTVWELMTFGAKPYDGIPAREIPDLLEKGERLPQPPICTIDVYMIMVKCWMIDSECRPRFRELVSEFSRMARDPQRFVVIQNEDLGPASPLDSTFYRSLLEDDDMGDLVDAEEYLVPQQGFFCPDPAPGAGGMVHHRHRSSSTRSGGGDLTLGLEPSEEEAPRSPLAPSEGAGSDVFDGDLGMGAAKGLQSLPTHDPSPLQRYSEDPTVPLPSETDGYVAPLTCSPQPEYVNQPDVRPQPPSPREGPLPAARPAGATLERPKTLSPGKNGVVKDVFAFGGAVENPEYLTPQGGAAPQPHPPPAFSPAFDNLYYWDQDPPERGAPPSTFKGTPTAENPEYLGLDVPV
T1 sequence (P00533 with tags, fused parts or gaps INS769ASV): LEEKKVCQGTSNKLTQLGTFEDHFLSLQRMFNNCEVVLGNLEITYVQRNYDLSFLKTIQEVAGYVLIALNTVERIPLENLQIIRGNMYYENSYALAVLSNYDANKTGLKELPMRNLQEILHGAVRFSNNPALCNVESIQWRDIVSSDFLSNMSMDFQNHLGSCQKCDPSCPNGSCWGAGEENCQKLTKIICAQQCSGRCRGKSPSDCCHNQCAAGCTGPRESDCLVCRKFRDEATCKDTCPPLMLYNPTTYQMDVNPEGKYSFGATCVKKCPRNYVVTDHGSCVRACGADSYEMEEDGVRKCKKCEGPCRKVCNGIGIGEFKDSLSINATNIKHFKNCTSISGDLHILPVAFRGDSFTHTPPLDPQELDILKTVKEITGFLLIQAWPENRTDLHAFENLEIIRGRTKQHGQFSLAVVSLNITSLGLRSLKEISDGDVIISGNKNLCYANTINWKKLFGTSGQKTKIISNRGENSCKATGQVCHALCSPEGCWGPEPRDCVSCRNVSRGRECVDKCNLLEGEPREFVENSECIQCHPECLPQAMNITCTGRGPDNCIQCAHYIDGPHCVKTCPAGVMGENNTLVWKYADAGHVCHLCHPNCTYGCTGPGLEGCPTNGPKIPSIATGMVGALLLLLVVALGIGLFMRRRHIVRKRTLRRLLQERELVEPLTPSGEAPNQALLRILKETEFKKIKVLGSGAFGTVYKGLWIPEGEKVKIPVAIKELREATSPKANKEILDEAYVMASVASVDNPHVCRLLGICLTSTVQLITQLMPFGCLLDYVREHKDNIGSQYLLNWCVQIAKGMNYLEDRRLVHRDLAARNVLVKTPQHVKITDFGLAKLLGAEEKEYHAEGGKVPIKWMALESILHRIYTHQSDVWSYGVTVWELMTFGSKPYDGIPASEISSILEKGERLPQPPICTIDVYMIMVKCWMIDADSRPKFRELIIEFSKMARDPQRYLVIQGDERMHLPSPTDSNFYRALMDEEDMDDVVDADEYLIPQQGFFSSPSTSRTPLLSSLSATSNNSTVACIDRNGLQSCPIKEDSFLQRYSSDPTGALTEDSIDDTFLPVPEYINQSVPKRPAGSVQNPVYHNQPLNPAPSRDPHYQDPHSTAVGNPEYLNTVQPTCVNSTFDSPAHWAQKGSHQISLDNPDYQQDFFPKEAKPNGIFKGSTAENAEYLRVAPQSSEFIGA

Row | Compound | IC50 [2] [nM] | GI50 (Ba/F3 EGFR ASV ins cells) [nM] | GI50 (Ba/F3 EGFR NPH ins cells) [nM] | IC50 [3] [nM] | IC50 [4] [nM] | GI50 (WT EGFR cell line A-431) [nM] | GI50 [5] [nM] | IC50 (EGFR L858R&T790M) [nM] | IC50 (WT EGFR) [nM] | GI50 (OCI-LY-10 cells) [nM] | GI50 [1] [nM] | GI50 (TMD-8 cells) [nM] | GI50 (DB cells) [nM] | GI50 (Ri-1 cells) [nM]
1 | C=CC(=O)Nc1cc(Nc2ncnc(Nc3cc(Cl)c(F)cc3C(C)(C)O)n2)c(OC)cc1N(C)CCN1CCCCC1 [Compound 26, N-(5-(4-(5-chloro-4-fluoro-2-(2-hydroxypropan-2-yl)phenylamino)-1,3,5-triazin-2-ylamino)-4-methoxy-2-(methyl(2-(piperidin-1-yl)ethyl)amino)phenyl)acrylamide] | 40.5 | 99.5 | 123 | 43.5 | 9.5 | 57.8 | 32.4 | 1.3 | 103 | 45.3 | 253 | 12.6 | > 3000 | 50.5
2 | C=CC(=O)Nc1cc(Nc2ncnc(Nc3cc(F)c(F)cc3C(C)(C)O)n2)c(OC)cc1N1CC[C@@H](N(C)C)C1 [Compound 27, (R)-N-(5-(4-(4,5-difluoro-2-(2-hydroxypropan-2-yl)phenylamino)-1,3,5-triazin-2-ylamino)-2-(3-(dimethylamino)pyrrolidin-1-yl)-4-methoxyphenyl)acry lamide] | 19.4 | 64.7 | 57.9 | 28.3 | 15.6 | 26.2 | 5.2 | 0.7 | 34.8 | 17.7 | 106 | 11.6 | > 3000 | 120
3 | C=CC(=O)Nc1cc(Nc2ncnc(Nc3cc(Cl)c(F)cc3C(C)(C)O)n2)c(OC)cc1N1CC[C@@H]2CN(C)C[C@@H]21 [Compound 28, N-(5-(4-(5-chloro-4-fluoro-2-(2-hydroxypropan-2-yl)phenylamino)-1,3,5-triazin-2-ylamino)-4-methoxy-2-((3aR,6aR)-5-methylhexahydropyrrolo[3,4-b]pyrrol-1 (2H)-yl)phenyl)acrylamide] | 21.7 | 58.2 | 67.7 | 50.6 | 15.2 | 21.2 | 8.9 | 1.4 | 42.1 | 119 | 114 | 34 | > 3000 | 230
4 | C=CC(=O)Nc1cc(Nc2ncnc(Nc3cc(Cl)c(F)cc3C(C)(C)O)n2)c(OC)cc1N(C)CCN1CCCC1 [Compound 29, N-(5-(4-(5-chloro-4-fluoro-2-(2-hydroxypropan-2-yl)phenylamino)-1,3,5-triazin-2-ylamino)-4-methoxy-2-(methyl(2-(pyrrolidin-1-yl)ethyl)amino)phenyl)acrylamide] | 17.4 | 45.2 | 52.7 | 22.9 | 7.6 | 20.1 | 6.9 | 1 | 45.3 | 35.5 | 68.3 | 11.3 | > 3000 | 44.8
5 | C=CC(=O)Nc1cc(Nc2ncnc(Nc3cc(Cl)c(F)cc3C(C)(C)O)n2)c(OC)cc1N(C)C[C@H]1CCCN1C [Compound 30, (R)-N-(5-(4-(5-chloro-4-fluoro-2-(2-hydroxypropan-2-yl)phenylamino)-1,3,5-triazin-2-ylamino)-4-methoxy-2-(methyl((1-methylpyrrolidin-2-yl)methyl)amino)phenyl) acrylamide] | 5.7 | 25.9 | 19.3 | 11.1 | 5.5 | 12.4 | 3.7 | 0.5 | 13.2 | 13.1 | 47.5 | 17.8 | > 3000 | 28.6

Compounds with a lower IC50 [2], results first:

Row | IC50 [2] [nM] | GI50 (Ba/F3 EGFR ASV ins cells) [nM] | GI50 (Ba/F3 EGFR NPH ins cells) [nM] | IC50 [3] [nM] | IC50 [4] [nM] | GI50 (WT EGFR cell line A-431) [nM] | GI50 [5] [nM] | IC50 (EGFR L858R&T790M) [nM] | IC50 (WT EGFR) [nM] | GI50 (OCI-LY-10 cells) [nM] | Compound | GI50 [1] [nM] | GI50 (TMD-8 cells) [nM] | GI50 (DB cells) [nM] | GI50 (Ri-1 cells) [nM]
6 | 5.4 | 24.3 | 22.2 | 9.2 | 4.7 | 21.9 | 1.5 | 0.5 | 13.9 | 986 | C=CC(=O)Nc1cc(Nc2ncnc(Nc3cc(F)c(F)cc3C(C)(C)O)n2)c(OC)cc1N1CCOC[C@@H]1CN(C)C [Compound 35, (S)-N-(5-(4-(4,5-difluoro-2-(2-hydroxypropan-2-yl)phenylamino)-1,3,5-triazin-2-ylamino)-2-(3-((dimethylamino)methyl)morpholino)-4-methoxyphenyl) acrylamide] | 39.4 | 377 | > 3000 | 699
7 | 5 | 9.2 | 47.9 | 13.8 | 4.3 | 4.2 | 4.2 | 0.5 | 5.5 | 30 | C=CC(=O)Nc1cc(Nc2ncnc(Nc3cc(Cl)c(F)cc3C(C)(C)O)n2)c(OC)cc1N1CCC[C@@H]1CN(C)C [Compound 31, (R)-N-(5-(4-(5-chloro-4-fluoro-2-(2-hydroxypropan-2-yl)phenylamino)-1,3,5-triazin-2-ylamino)-2-(2-((dimethylamino)methyl)pyrrolidin-1-yl)-4-methoxyphenyl)acrylamide] | 60.1 | 7.18 | > 3000 | 59.9
8 | 4.4 | 17.6 | 16.4 | 6.2 | 4.2 | 7.5 | 1.6 | 0.5 | 6 | 7.6 | C=CC(=O)Nc1cc(Nc2ncnc(Nc3cc(F)c(C4CC4)cc3C(C)(C)O)n2)c(OC)cc1N(C)CCN(C)C [Compound 34, N-(5-(4-(4-cyclopropyl-5-fluoro-2-(2-hydroxypropan-2-yl)phenylamino)-1,3,5-triazin-2-ylamino)-2-((2-(dimethylamino)ethyl)(methyl)amino)-4-methoxyphenyl)acrylamide] | 21.1 | 12.3 | > 3000 | 16.6
9 | 3.7 | 19.3 | 19.1 | 14.8 | 7.8 | 6 | 1.8 | 0.4 | 11 | 0.29 | C=CC(=O)Nc1cc(Nc2ncnc(Nc3cc4ccn(C)c4cc3C(C)(C)O)n2)c(OC)cc1N(C)CCN(C)C [Compound 32, N-(2-((2-(dimethylamino)ethyl)(methyl)amino)-5-(4-(6-(2-hydroxypropan-2-yl)-1-methyl-1H-indol-5-ylamino)-1,3,5-triazin-2-ylamino)-4-methoxyphenyl)acrylamide] | 35.2 | 0.26 | > 3000 | 0.71
10 | 2.3 | 8.2 | 11.2 | 6.8 | 1.7 | 4.1 | 2.5 | 0.2 | 5.1 | 9.7 | C=CC(=O)Nc1cc(Nc2ncnc(Nc3cc(F)c(F)cc3C(C)(C)O)n2)c(OC)cc1N1CCC[C@@H]1CN(C)C [Compound 21, (R)-N-(5-(4-(4,5-difluoro-2-(2-hydroxypropan-2-yl)phenylamino)-1,3,5-triazin-2-ylamino)-2-(2-((dimethylamino)methyl)pyrrolidin-1-yl)-4-methoxyphenyl)acrylamide] | 13.2 | 19.2 | > 3000 | 11.2
